# Source: patent US10407467B2, “Polymyxin derivatives and their use in combination therapy together with different antibiotics” (priority 2013, dated 2019)
# Key:
# Assay in all cases: MIC, sole activity (no second agent)
# Format in all cases: cell-based
# Settings in all cases: Table 6A; no second agent; different supplier of Cation-adjusted MHB
# Escherichia coli = system: Escherichia coli
# Experimental: (§1) To evaluate the potency and spectrum of the compounds both alone and in combination with another agent, susceptibility testing was performed against up to four strains of each of the four Gram negative pathogens, Escherichia coli, Pseudomonas aeruginosa, Klebsiella pneumoniae and Acinetobacter baumannii.
# (§2) The inoculum was prepared by making a direct suspension of isolated colonies (selected from an 18-24 hour Mueller-Hinton agar plate) adjusted to the 0.5 McFarland standard.
# (§3) The assays were performed in duplicate.
# (§4) In cases where the duplicate values varied by less than 2-fold, the lower of the two values is reported. If a variation of greater than 2-fold was observed, the assay was considered non-valid. Several of the compounds were subjected to multiple tests, and where this is the case, the MIC reflects the modal value obtained.
# (§5) MICs were determined as described herein, except that a different supplier of Cation-adjusted MHB was used. […] Values are reported relative to Polymyxin B.
# Pseudomonas aeruginosa = system: Pseudomonas aeruginosa
# Experimental: as §1, §2, §3, §4, §5
# Klebsiella pneumoniae = system: Klebsiella pneumoniae
# Experimental: as §1, §2, §3, §4, §5
# Acinetobacter baumannii = system: Acinetobacter baumannii
# Experimental: as §1, §2, §3, §4, §5
Substance,MIC E. coli ATCC25922 (Escherichia coli) [micrograms/mL],MIC E. coli NCTC 13441 (Escherichia coli) [micrograms/mL],MIC P. aeruginosa ATCC 27853 (Pseudomonas aeruginosa) [micrograms/mL],MIC P. aeruginosa CCUG 59347 (Pseudomonas aeruginosa) [micrograms/mL],MIC K. pneumoniae ATCC 4352 (Klebsiella pneumoniae) [micrograms/mL],MIC K. pneumoniae ATCC BAA-2146 (Klebsiella pneumoniae) [micrograms/mL],MIC A. baumannii ATCC BAA-747 (Acinetobacter baumannii) [micrograms/mL],MIC A. baumannii NCTC 13424 (Acinetobacter baumannii) [micrograms/mL]
"(2S,4R)-4-amino-1-(3-amino- 3-cyclohexylpropanoyl)pyrrolidine- 2-carbonyl polymyxin B nonapeptide [Example A29]",>8,>8,0.25,>8,>8,>8,2,4
(R)-4-isobutylpiperazine-2- carbonyl polymyxin B nonapeptide [Example A46],2,2,1,2,2,2,8,2
(R)-Piperidine-3-carbonyl polymyxin B nonapeptide [Example A24],>8,>8,1,2,8,>8,>8,>8
(S)-1-(2-methylpropyl)- piperidine-3-carbonyl polymyxin B nonapeptide [Example A48],1,1,1,4,0.5,2,4,2
(S)-1-(3-methylbutanoyl) piperazine-2-carbonyl polymyxin B nonapeptide [Example A47],>8,8,2,8,>8,8,8,4
Cis-4-Octyl piperidine-2- carbonyl polymyxin B nonapeptide. Isomer 1 [Example A43],8,>8,4,8,>8,,>8,>8
Cis-4-Octyl piperidine-2- carbonyl polymyxin B nonapeptide. Isomer 2 [Example A44],2,2,1,2,2,,2,4
D-Leu-polymyxin B nonapeptide [Example A42],2,1,0.5,2,2,1,4,4
D-Phe polymyxin B nonapeptide [Example A35],1,2,0.25,1,2,2,8,8
D-Pro polymyxin B nonapeptide [Example A36],2,2,1,4,1,8,8,8
L-Pro polymyxin B nonapeptide [Example A37],>8,>8,2,>8,>8,>8,>8,>8
Piperidine-1-ylethanoyl polymyxin B nonapeptide [Example A2],4,>8,2,4,8,,>8,>8
Piperidine-2-carbonyl polymyxin B nonapeptide. Isomer 1 [Example A25],>8,>8,2,4,8,>8,>8,8
Piperidine-2-carbonyl polymyxin B nonapeptide. Isomer 2 [Example A26],2,2,1,2,0.5,1,2,1
[2-(RS)-(2-Hydroxy-2- cyclohexyl)ethanoyl]-L-Thr- L-Dap-polymyxin B heptapeptide [Example A4],1,4,2,2,2,,>8,>8
"[3(R,S)-3-Amino-3- cyclohexanepropanoyl]-Gly- polymyxin B nonapeptide [Example A7]",>8,>8,1,>8,>8,,4,8
"[3(R,S)-3-Amino-3- cyclohexanepropanoyl]-L- Arg- polymyxin B nonapeptide [Example A23]",>8,>8,8,>8,>8,>8,2,4
"[3(R,S)-3-Amino-3- cyclohexanepropanoyl]-L- Dab-L-Thr-L-Dap polymyxin B heptapeptide [Example A10]",1,1,0.25,0.25,0.5,,2,2
"[3(R,S)-3-Amino-3- cyclohexanepropanoyl]-L- His- polymyxin B nonapeptide [Example A19]",8,4,1,2,8,8,4,4
"[3(R,S)-3-Amino-3- cyclohexanepropanoyl]-L- Phe- polymyxin B nonapeptide isomer 1 [Example A20]",>8,>8,>8,>8,>8,>8,>8,>8
